Three molecules from US8518956B2, “1-(1-(2-ethoxyethyl)-3-ethyl-7-(4-methylpyridin-2-ylamino)-1H-pyrazolo[4,3-d]pyrimidin-5-yl) piperidine-4-carboxylic acid and salts thereof” (priority 2005, dated 2013) can be followed below.

As usually defined, the IC50 is the concentration needed to halve the response being measured.

The target in this test is PDE6 enzyme. Conditions: read-out: METHOD 2: PDE6 IC50; Table F, WO2004096810 examples. An excerpt: Method 2: Human Retina PDE6 Enzyme Inhibition Scintillation Proximity Assay (SPA)
The inhibition of PDE6 enzyme activity by a test compound can be measured in accordance with the in vitro assay of Method 1, but instead using semi-purified PDE6 enzyme isolated from human, bovine or canine retina in place of PDE5 enzyme. […] [3H]GMP binds to yttrium silicate SPA beads and is detected by scintillation counting. • PDE6 Purification: PDE6 can be isolated and purified from the following: Soluble rod PDE6/Rod Outer Segment PDE6 from Bovine eyes (Charles River Ltd, France); Cone PDE6 from Canine eyes (LAS); or Soluble rod and Cone PDE6 from Human eyes (I.I.A.M.).
While supporting the eye with the cornea uppermost, make a small incision through the conjunctiva below the level of the iris. The incision should be sufficient to allow the humor to escape through the cut. Using fine scissors, cut around the cornea to enable it to be lifted off as a flap. Using a small hook, engage the lens and gently pull it out of orbit, taking care not to pull out the retina at the same time. Allow the retina to drop down of its own accord to the base of the orbit.
Lift the retina with care and locate the optic nerve. Cut through the optic nerve and transfer the retina to a small dish containing a few ml of homogenisation buffer. Gently float the retina out on the surface of the buffer and remove any obvious pigmented material from the iris. Place the retina in a second dish with clean buffer to remove last traces of pigment and then transfer to a 50 ml Corning Costar centrifuge tube (Sigma) and keep on ice. • PDE6 Isolation and Purification from Retina: Allow 2 mls of the homogenisation buffer per bovine retina and 1 ml per retina for dog and human. Homogenise using hand-held homogeniser 3×5 second bursts cooling on ice between each burst. Filter homogenate through two layers of surgical gauze. Spin at 100,000 g for 60 minutes at 4° C. […] Run through FPLC (Pharmacia FPLC LKB/FRAC-100, Pharmacia) or aliquot and store in liquid nitrogen as needed. Method 2A: Alternative Human Retina PDE6 Enzyme Inhibition Scintillation Proximity Assay (SPA)

As to `Cc1ccnc(Nc2nc(N3CCC(C(=O)O)CC3)nc3c(C)nn(CCOCC(F)(F)F)c23)c1` [WO2004096810 Example 261], the IC50 is 58.8 nM. Then `Cc1cc(Nc2nc(N3CCC(C(=O)O)CC3)nc3c(C)nn(CCOCC(F)(F)F)c23)ncn1` [WO2004096810 Example 262], with 47.7 nM; and `CCc1nn(CCOCC(F)(F)F)c2c(Nc3cc(C)ncn3)nc(N3CCC(C(=O)O)CC3)nc12` [WO2004096810 Example 263], with 25.3 nM.
